According to US9801895B1, “Cream formulation with amphotericin B and oil in water useful for topical application to mucous tissue and skin against diseases produced by leishmaniasis” (priority 2013, dated 2017):

How the values were obtained:
[1] = tested on: Trypanosoma cruzi (T. cruzi); conditions: given soon after infection at the onset of the acute phase; cited from earlier work
L. amazonensis = test: In vivo therapeutic response in the hamster model for cutaneous leishmaniasis; design: species or system Golden hamsters (Mesocricetus aerates); conditions: intramuscular, once a day x 10 days, 120 mg/kg day
Protocol: In Vivo Therapeutic Response of Cream Product Formulation on L. amazonensis
(§1) The evaluation of the therapeutic response and toxicity of the cream formulation was carried out in the hamster model for cutaneous leishmaniasis (Robledo et al, 2012) using the Golden hamsters (Mesocricetus aerates). Animals were handled under the same micro and macro environmental conditions. Experimental groups were named accordingly: A. Cream product formulation once a day; B. Cream product formulation twice a day; C. Placebo once a day and D. Placebo twice a day. Additionally, two groups of animals were used as control groups. One of them (E) was used to evaluate meglumine antimoniate as a control medicine at the curative (120 mg/kg day×10 days) and the other group (F) were infected and untreated animals.
The effectiveness of each treatment was assessed comparing the lesion sizes prior to and after treatments, using the following score system: cure (healing of 100% area and complete disappearance of the lesion); clinical improvement (reducing the size of the lesion in >30% of the area); clinical failure (reduction in the size of the lesion lower than 30% or increase in the size of the lesion); relapse (reactivation of lesion after cure).

[2] = In vivo toxicity in infected hamsters (body weight, serum analytes, histopathology); design: species or system Golden hamsters (Mesocricetus aerates)
Protocol: as §1
Hamsters were weighed weekly from the beginning of the experiment until three months after the end of the treatment.
Effect of Treatments on Serum Levels of BUN, Creatinine and ALT:

[3] = tested on: Reconstructed Human corneal Epithelium tissue (HCE); type: cell-based
Protocol: In Vitro Eye Irritation (Adapted from OECD Guideline No. 439):
For evaluation of eye irritation (cornea tissue) we used the Acute Eye irritation test using Reconstructed Human corneal Epithelium tissue (HCE).
Each test substance (cream product formulation, placebo, positive and negative controls) was applied topically. After 10 minutes, 2 hours and 24 hours of treatment cell viability was determined using MTT.

[4] = tested on: reconstructed human tissue model (RHE); type: cell-based
Text: In Vitro Skin Corrosion Test (Adapted from OECD Guideline No. 431):
To evaluate skin corrosion a reconstructed human tissue model (RHE) in three dimensions was used.

[5] = rat, in vivo
Text: In Vivo Skin Absorption/Penetration. This Study Followed the OECD Test Guideline 427.
In this method the test substance is applied to the clipped skin of animals and is allowed to remain in contact with the skin for a fixed period of time under a non-occlusive cover to prevent ingestion of the test preparation. At the end of the exposure time the cover is removed and the skin is cleaned with an appropriate cleansing agent, the cover and the cleansing materials are retained for analysis and a fresh cover applied. Animals were exposed to the test preparation during 8 hours. One group was killed at the end of the exposure period. Other group was sacrificed at 48 hours and a third group was sacrificed at 72 hours after the end of exposure. The samples were assayed for concentration of amphotericin B by HPLC and the degree of percutaneous absorption was estimated.
Dosage and treatment groups: 12 animals were used, divided into three groups, which were applied the product under study. Four animals for each time interval: 8 h, 48 h and 72 h.
Environmental conditions and housing: The animals were randomly distributed in individual cages. During the experiment, water management and food was ad libitum. […]

[6] = biphasic elimination described for amphotericin B; cited from earlier work
3T3 = test: In vitro 3T3 NRU phototoxicity test (OECD Guideline No 432); type: cell-based
Text: Phototoxicity/Photosensitisation Potential: The OECD Guideline No 432 was Followed.

O=C(Cn1ccnc1[N+](=O)[O-])NCc1ccccc1 [benznidazole]
effectiveness in curing the disease [1]: ~100%

meglumine antimoniate
efficacy (L. amazonensis): 71%

C[C@@H]1[C@H](O)[C@@H](C)/C=C/C=C/C=C/C=C/C=C/C=C/C=C/[C@H](O[C@@H]2O[C@H](C)[C@@H](O)[C@H](N)[C@@H]2O)C[C@@H]2O[C@](O)(C[C@@H](O)C[C@@H](O)[C@H](O)CC[C@@H](O)C[C@@H](O)CC(=O)O[C@H]1C)C[C@H](O)[C@H]2C(=O)O [amphotericin B, Amphotericin B]
kidney histopathology [2]: no significant changes | liver histopathology ([2]; one or two applications per day): no lesions or significant changes | eye (corneal) irritation [3]: no corneal irritation | skin corrosion [4]: does not show skin corrosion | amphotericin B in urine [5]: not detected | elimination half life, last elimination phase [6]: 15 days

C[C@H]1c2cccc(O)c2C(=O)C2=C(O)[C@]3(O)C(=O)C(C(N)=O)=C(O)[C@@H](N(C)C)[C@@H]3[C@@H](O)[C@@H]21 [doxycycline]
phototoxicity classification (3T3): phototoxic | PIF (3T3; exposure to light): 9.3
